According to ChEMBL document CHEMBL4507276 (2021):

Columns and labels:
Settings in all cases: Compound concentration 1000.0 nM
[1] = biological target: 1-phosphatidylinositol 3-phosphate 5-kinase (Homo sapiens) (UniProt Q9Y2I7)
[2] = biological target: RAF proto-oncogene serine/threonine-protein kinase (Homo sapiens) (UniProt P04049)
[3] = biological target: Calcium/calmodulin-dependent protein kinase type II subunit beta (Homo sapiens) (UniProt Q13554)
[4] = biological target: Serine/threonine-protein kinase PLK3 (Homo sapiens) (UniProt Q9H4B4)
[5] = biological target: Receptor-interacting serine/threonine-protein kinase 1 (Homo sapiens) (UniProt Q13546)
[6] = biological target: Rho-associated protein kinase 2 (Homo sapiens) (UniProt O75116)
[7] = biological target: Cyclin-dependent kinase 13 (Homo sapiens) (UniProt Q14004)
[8] = biological target: NUAK family SNF1-like kinase 2 (Homo sapiens) (UniProt Q9H093)
[9] = biological target: Tyrosine-protein kinase Fer (Homo sapiens) (UniProt P16591)
Tyrosine-protein kinase Fer (Homo sapiens), sequence (P16591 whole entry, looked up): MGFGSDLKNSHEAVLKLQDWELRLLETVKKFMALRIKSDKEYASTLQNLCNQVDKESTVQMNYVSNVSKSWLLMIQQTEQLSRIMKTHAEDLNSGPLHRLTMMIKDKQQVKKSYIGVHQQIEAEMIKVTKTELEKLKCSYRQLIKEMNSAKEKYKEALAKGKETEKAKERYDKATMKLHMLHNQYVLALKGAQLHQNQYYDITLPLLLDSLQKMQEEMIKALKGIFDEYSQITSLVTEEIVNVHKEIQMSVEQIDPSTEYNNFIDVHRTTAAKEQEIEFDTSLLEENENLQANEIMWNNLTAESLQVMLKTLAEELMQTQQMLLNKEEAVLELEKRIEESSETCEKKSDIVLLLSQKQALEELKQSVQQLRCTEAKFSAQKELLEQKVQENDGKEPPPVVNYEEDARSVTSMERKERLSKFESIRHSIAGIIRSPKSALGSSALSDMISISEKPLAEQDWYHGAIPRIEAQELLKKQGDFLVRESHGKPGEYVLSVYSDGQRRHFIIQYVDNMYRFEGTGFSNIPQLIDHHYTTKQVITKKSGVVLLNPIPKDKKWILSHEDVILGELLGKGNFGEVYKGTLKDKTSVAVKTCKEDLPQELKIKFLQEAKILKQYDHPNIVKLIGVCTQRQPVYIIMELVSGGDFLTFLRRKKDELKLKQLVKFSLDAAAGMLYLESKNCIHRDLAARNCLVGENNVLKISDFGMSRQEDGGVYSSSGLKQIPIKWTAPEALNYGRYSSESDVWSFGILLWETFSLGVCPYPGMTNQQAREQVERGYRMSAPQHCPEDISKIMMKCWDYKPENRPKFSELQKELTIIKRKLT

[10] = biological target: T1, Inhibitor of nuclear factor kappa-B kinase subunit epsilon (Homo sapiens) (UniProt Q14164)
T1 sequence (whole entry): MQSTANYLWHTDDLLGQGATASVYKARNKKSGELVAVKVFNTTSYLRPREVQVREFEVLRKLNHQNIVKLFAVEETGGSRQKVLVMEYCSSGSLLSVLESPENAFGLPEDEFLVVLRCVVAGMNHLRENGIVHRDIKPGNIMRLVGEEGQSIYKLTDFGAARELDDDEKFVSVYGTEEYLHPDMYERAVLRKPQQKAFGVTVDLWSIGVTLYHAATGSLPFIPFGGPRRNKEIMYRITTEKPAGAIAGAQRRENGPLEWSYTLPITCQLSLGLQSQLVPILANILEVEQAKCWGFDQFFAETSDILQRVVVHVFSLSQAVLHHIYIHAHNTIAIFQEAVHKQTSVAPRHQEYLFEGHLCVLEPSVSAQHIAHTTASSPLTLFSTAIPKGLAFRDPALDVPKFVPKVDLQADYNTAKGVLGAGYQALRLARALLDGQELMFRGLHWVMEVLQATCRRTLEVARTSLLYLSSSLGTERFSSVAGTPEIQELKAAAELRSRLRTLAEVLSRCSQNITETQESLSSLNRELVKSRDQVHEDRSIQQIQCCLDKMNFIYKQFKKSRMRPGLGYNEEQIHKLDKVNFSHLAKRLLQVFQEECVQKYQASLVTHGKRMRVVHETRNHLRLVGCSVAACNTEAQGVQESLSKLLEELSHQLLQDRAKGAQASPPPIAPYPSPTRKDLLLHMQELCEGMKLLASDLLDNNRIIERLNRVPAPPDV

[11] = biological target: RAC-alpha serine/threonine-protein kinase (Homo sapiens) (UniProt P31749)
RAC-alpha serine/threonine-protein kinase (Homo sapiens), sequence (P31749 whole entry): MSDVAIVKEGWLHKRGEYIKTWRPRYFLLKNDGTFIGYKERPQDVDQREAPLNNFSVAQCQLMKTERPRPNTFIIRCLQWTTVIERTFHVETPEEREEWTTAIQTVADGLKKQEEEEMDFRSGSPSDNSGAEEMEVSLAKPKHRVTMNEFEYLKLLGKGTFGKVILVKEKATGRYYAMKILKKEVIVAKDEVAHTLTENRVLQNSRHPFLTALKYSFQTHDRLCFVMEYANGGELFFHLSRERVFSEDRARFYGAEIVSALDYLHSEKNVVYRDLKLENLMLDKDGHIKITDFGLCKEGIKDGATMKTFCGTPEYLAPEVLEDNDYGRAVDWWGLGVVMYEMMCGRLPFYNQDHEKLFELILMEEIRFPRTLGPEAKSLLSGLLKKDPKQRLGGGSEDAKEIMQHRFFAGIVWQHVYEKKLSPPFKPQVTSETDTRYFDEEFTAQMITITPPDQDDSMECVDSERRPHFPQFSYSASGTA

[12] = biological target: Serine/threonine-protein kinase mTOR (Homo sapiens) (UniProt P42345)
[13] = biological target: Dual serine/threonine and tyrosine protein kinase (Homo sapiens) (UniProt Q6XUX3)
Dual serine/threonine and tyrosine protein kinase (Homo sapiens), sequence (Q6XUX3 whole entry): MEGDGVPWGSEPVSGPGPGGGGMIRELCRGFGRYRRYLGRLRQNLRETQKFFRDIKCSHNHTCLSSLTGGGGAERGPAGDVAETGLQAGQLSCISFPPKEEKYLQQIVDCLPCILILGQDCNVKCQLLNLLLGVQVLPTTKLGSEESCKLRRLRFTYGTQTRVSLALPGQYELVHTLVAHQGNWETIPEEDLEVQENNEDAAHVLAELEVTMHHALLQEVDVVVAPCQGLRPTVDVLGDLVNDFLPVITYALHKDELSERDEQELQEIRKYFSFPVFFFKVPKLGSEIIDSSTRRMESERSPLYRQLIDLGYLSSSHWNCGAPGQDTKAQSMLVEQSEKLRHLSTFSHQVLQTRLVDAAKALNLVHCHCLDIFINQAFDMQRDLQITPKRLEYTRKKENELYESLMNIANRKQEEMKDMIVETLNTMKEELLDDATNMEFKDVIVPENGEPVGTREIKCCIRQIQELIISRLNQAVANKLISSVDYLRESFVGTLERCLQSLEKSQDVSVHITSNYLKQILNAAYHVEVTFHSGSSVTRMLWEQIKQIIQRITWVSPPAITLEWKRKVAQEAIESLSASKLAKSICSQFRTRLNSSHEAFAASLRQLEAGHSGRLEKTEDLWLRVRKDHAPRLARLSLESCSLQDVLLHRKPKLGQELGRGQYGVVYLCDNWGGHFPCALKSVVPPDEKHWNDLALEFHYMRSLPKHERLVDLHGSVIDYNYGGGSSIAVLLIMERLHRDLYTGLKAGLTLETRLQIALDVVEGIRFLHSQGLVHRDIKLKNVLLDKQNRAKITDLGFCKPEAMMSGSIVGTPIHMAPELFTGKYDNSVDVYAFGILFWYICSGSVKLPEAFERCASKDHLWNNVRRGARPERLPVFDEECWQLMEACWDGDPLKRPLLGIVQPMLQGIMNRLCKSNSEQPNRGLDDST

[14] = biological target: Cyclin-dependent kinase-like 2 (Homo sapiens) (UniProt Q92772)
[15] = biological target: Mitogen-activated protein kinase 4 (Homo sapiens) (UniProt P31152)
[16] = biological target: Dual specificity tyrosine-phosphorylation-regulated kinase 2 (Homo sapiens) (UniProt Q92630)
Dual specificity tyrosine-phosphorylation-regulated kinase 2 (Homo sapiens), sequence (Q92630 whole entry): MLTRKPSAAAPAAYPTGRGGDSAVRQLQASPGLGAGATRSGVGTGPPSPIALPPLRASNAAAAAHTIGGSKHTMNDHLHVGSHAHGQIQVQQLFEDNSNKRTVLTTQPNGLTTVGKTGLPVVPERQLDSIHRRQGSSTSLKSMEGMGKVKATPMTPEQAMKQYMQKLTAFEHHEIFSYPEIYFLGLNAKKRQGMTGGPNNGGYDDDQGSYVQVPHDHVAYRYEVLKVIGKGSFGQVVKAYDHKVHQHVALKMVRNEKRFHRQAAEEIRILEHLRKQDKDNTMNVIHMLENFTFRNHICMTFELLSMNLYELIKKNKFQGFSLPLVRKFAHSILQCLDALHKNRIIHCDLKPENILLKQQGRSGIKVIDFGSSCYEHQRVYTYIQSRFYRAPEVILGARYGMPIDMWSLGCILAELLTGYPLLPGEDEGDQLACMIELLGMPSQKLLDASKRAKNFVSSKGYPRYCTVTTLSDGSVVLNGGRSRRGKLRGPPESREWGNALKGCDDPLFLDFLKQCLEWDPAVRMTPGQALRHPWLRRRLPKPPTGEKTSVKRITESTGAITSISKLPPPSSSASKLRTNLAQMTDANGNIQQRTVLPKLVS

[17] = biological target: Ribosomal protein S6 kinase beta-1 (Homo sapiens) (UniProt P23443)
[18] = system: Tyrosine-protein kinase ABL1 (Homo sapiens), P00519 [Y253F]
[19] = biological target: T2, MAP/microtubule affinity-regulating kinase 4 (Homo sapiens) (UniProt Q96L34)
T2 sequence (whole entry): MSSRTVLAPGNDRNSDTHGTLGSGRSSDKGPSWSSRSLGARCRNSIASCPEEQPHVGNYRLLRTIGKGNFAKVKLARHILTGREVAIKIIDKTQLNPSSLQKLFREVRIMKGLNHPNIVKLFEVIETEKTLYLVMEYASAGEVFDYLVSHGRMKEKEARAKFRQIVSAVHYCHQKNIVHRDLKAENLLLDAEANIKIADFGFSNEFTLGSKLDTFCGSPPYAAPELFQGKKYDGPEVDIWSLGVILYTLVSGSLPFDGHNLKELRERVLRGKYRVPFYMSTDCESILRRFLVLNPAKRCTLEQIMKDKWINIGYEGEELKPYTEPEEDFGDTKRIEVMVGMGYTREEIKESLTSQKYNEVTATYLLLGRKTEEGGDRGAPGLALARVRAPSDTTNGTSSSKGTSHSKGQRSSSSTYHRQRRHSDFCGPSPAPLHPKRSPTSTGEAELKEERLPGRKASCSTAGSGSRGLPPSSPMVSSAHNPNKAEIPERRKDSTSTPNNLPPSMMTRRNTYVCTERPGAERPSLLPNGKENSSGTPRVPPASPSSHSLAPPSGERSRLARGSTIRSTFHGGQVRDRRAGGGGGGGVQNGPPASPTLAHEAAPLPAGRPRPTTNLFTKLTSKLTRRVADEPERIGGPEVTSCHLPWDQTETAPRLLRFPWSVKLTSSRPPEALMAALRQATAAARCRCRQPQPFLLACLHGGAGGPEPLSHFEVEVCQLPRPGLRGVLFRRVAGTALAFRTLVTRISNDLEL

[20] = biological target: Serine/threonine-protein kinase 36 (Homo sapiens) (UniProt Q9NRP7)
[21] = biological target: Protein-tyrosine kinase 6 (Homo sapiens) (UniProt Q13882)
[22] = biological target: Ephrin type-B receptor 6 (Homo sapiens) (UniProt O15197)
[23] = biological target: Dual specificity testis-specific protein kinase 1 (Homo sapiens) (UniProt Q15569)

Measured: residual activity

1-phosphatidylinositol 3-phosphate 5-kinase (Homo sapiens), sequence (Q9Y2I7 whole entry): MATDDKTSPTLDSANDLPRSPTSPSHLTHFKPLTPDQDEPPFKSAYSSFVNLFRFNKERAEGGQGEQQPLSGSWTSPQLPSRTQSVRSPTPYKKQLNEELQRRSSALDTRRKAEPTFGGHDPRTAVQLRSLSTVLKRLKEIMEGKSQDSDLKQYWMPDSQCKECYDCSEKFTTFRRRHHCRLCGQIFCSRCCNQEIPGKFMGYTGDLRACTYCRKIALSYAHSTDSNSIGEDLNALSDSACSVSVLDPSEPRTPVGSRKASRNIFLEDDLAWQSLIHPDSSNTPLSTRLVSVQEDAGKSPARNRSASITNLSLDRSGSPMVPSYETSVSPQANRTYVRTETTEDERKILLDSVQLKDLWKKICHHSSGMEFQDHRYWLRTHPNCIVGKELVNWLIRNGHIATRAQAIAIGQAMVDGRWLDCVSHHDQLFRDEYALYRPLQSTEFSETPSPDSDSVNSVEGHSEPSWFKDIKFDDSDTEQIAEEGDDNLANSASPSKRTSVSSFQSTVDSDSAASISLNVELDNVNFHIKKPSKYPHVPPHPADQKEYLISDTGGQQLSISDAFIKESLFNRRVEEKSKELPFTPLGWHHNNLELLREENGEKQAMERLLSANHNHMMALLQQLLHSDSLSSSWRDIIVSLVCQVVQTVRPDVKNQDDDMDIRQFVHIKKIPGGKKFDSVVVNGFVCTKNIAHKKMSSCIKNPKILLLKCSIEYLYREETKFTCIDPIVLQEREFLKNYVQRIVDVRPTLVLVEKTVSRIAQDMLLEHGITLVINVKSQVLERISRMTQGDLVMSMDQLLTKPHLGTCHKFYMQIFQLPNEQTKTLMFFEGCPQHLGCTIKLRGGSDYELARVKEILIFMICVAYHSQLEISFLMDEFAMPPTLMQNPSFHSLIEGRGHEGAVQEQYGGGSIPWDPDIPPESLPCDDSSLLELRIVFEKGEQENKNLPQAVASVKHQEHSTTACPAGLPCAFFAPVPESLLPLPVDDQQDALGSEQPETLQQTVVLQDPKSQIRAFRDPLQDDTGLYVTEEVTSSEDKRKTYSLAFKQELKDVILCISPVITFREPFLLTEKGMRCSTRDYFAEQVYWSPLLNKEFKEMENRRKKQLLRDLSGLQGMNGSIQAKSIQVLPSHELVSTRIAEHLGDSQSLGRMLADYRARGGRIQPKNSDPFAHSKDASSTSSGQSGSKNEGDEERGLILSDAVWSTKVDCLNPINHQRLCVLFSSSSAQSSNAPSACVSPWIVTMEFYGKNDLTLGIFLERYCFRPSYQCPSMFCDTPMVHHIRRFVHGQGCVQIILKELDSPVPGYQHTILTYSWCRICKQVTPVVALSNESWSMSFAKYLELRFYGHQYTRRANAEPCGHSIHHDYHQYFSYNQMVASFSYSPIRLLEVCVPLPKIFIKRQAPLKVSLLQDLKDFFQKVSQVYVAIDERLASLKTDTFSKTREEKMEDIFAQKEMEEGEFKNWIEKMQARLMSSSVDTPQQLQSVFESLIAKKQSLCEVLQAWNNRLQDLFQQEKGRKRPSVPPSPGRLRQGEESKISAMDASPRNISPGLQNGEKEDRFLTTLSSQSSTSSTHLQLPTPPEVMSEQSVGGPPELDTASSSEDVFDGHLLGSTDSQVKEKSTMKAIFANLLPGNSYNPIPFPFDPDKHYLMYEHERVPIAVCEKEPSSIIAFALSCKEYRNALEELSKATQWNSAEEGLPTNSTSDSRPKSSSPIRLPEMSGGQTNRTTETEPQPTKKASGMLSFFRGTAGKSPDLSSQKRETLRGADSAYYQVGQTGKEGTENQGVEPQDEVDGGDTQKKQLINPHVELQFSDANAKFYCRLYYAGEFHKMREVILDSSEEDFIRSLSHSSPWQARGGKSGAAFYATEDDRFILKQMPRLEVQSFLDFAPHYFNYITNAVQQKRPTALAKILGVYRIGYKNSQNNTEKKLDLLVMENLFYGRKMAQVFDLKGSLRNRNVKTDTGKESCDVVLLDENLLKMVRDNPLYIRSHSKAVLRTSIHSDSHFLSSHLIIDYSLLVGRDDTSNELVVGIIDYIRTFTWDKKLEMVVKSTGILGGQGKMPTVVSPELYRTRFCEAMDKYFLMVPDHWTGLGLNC

CN(C)C(=O)Cn1cc(-c2nc(C3(c4ccc(-c5cnc(N)nc5)cc4)CC3)no2)cn1 [BI 0153]
inactive: [1] 98% | [2] 100% | [3] 94% | [4] 89% | [5] 89% | [6] 89% | [7] 91% | [8] 87% | [9] 79% | [10] 57% | [11] 97% | [12] 91% | [13] 94% | [14] 100% | [15] 100% | [16] 81% | [17] 91% | [18] 98% | [19] 96% | [20] 75% | [21] 100% | [22] 93% | [23] 94%

CN(C)C(=O)Cn1cc(-c2nc([C@@](C)(c3ccc(-c4cnc(N)nc4)cc3)C3CC3)no2)cn1 [BI 665915]
inactive: [1] 68% | [2] 100% | [3] 96% | [4] 89% | [5] 82% | [6] 100% | [7] 83% | [8] 83% | [9] 94% | [10] 86% | [11] 94% | [12] 100% | [13] 57% | [14] 100% | [15] 88% | [16] 89% | [17] 83% | [18] 76% | [19] 95% | [20] 79% | [21] 100% | [22] 76% | [23] 90%
